One block for each compound: values may come before it.
Tested on: neurons induced to differentiate from SCN1A gene deficient human iPS cells
Assay: Test for measuring hyperexcitation suppression activity (spontaneous calcium oscillation frequency)
Type: cell-based
Settings: Neuron; for inhibition at 1 µM / inhibition at 100 µM / inhibition at 10 µM / inhibition at 0.1 µM: Homo sapiens, read-out: inhibition rate; for IC50: SCN1A gene deficient human iPS cell-derived neurons, FLIPR Calcium 6, FDSS7000EX, read-out: IC50 (50% inhibitory concentration, frequency of spontaneous calcium oscillation)
From the text: Test for Measuring Hyperexcitation Suppression Activity Using Neurons Induced to Differentiate from SCN1A Gene Deficient Human iPS Cells
(1) Induction of Differentiation from Human iPS cells to Neurons
Half of the culture solution was exchanged once every 3 to 4 days.
(2) Fluorescent Calcium Probe Treatment, Addition of Compound, and Evaluation of Intracellular Calcium Concentration
Half of the culture solution was removed on day 60 from induction of differentiation or thereafter. A medium for measurement comprising a fluorescent calcium probe (Molecular Device, product name: FLIPR Calcium 6 Assay Bulk Kit, cat #R8191) was added at an amount equal to the remaining medium. The culture was left standing for 30 minutes and subjected to measurement.
The test compounds were serially diluted with a dimethyl sulfoxide (DMSO) solution so that the final concentration would be 0.1 to 100 μM to prepare a concentrate with a concentration that is 6-fold of the final concentration.
The intensity of fluorescence of a calcium probe was measured over time with FDSS7000EX (Hamamatsu Photonics) to evaluate the change in intracellular calcium concentrations. First, the intensity of fluorescence was measured for 2 minutes. The compound solutions were then added using FDSS7000EX for an additional 8 minute measurement of fluorescence intensity. The frequency of spontaneous calcium oscillation was quantified as an indicator of nerve excitation. With the frequency for 2 minutes before the addition of the compound solutions as 100%, the ratio of frequency for the last 2 minutes after addition of the compound solutions was calculated.

SMILES: O=c1c2cc(F)ccc2nc(Nc2cccnc2)n1-c1ccc(F)cc1 [Example 124]
inhibition at 1 µM: 32%

SMILES: O=c1c2cc(F)ccc2nc(Nc2ccnc(F)c2)n1-c1ccccc1 [Example 141, 6-fluoro-2-((2-fluoropyridin-4-yl)amino)-3-phenylquinazolin-4(3H)-one]
inhibition at 1 µM: 97%

IC50: > 10 µM
SMILES: COCCn1c(Nc2cccnc2)nc2ccc(F)cc2c1=O [Example 203]

IC50: > 100 µM
SMILES: O=c1c2cc(F)ccc2nc(Nc2csc(Cl)c2)n1-c1ccccc1 [Example 209]

SMILES: COc1cc(F)cc2c(=O)n(-c3ccccc3)c(Nc3cccnc3)nc12 [Example 17]
inhibition at 100 µM: 17%

SMILES: CN1CC[C@@H](n2c(Nc3cccnc3)nc3ccc(F)cc3c2=O)C1 [Example 97]
inhibition at 100 µM: 100%

SMILES: O=c1c2cc(F)ccc2nc(Nc2cccnc2)n1-c1ccccc1Cl [Example 145, 3-(2-chlorophenyl)-6-fluoro-2-(pyridin-3-ylamino)quinazolin-4(3H)-one]
inhibition at 1 µM: 100%

SMILES: O=c1c2cc(F)ccc2nc(Nc2cccnc2)n1CCc1ccccc1 [Example 158]
inhibition at 10 µM: 100%

SMILES: COc1cnccc1Nc1nc2ccc(F)cc2c(=O)n1-c1ccccc1 [Example 144]
inhibition at 100 µM: 16%

IC50: > 100 µM
SMILES: O=c1c2ccc(F)cc2nc(Nc2cncc(F)c2)n1-c1ccccc1 [Example 226]

SMILES: Cc1nc(Nc2nc3ccc(F)cc3c(=O)n2-c2ccccc2)cs1 [Example 174]
inhibition at 1 µM: 78%

SMILES: O=c1c2cc(Cl)ccc2nc(Nc2ncns2)n1-c1ccccc1 [Example 230]
inhibition at 10 µM: 2%

IC50: > 10 µM
SMILES: COc1ccnc(Nc2nc3ccc(F)cc3c(=O)n2-c2ccccc2)c1 [Example 187]

IC50: > 10 µM
SMILES: Cc1cc2c(=O)n(-c3ccccc3)c(Nc3cccnc3)nc2cn1 [Example 194]

SMILES: Cc1cccnc1Nc1nc2ccc(F)cc2c(=O)n1-c1ccccc1 [Example 136]
inhibition at 100 µM: 5%

IC50: > 10 µM
SMILES: O=c1c2ncccc2nc(Nc2cccnc2)n1-c1ccccc1 [Example 191]

SMILES: O=c1c2cc(Cl)ccc2nc(Nc2cccnc2)n1-c1ccccc1Cl [Example 15, 6-chloro-3-(2-chlorophenyl)-2-(pyridin-3-ylamino)quinazolin-4(3H)-one]
inhibition at 1 µM: 99%

SMILES: CN1CC[C@@H](n2c(Nc3cccnc3)nc3ccccc3c2=O)C1 [Example 96]
inhibition at 100 µM: 100%

IC50: > 100 µM
SMILES: O=c1c2cccc(Cl)c2nc(Nc2cccnc2)n1-c1ccccc1 [Example 219]

SMILES: O=c1c2cc(F)ccc2nc(Nc2cccnc2)n1C1CCC(F)(F)CC1 [Example 62]
inhibition at 1 µM: 43%

SMILES: O=c1c2cc(F)cnc2nc(Nc2cccnc2)n1-c1ccccc1 [Example 162]
inhibition at 10 µM: 39%

IC50: 4.9 µM
SMILES: O=c1c2cc(F)ccc2nc(Nc2ccncn2)n1-c1ccccc1 [Example 20]

SMILES: O=c1c2ccccc2nc(Nc2cccc3cnoc23)n1-c1ccccc1 [Example 67]
inhibition at 10 µM: 100%

SMILES: O=c1c2cc(F)ccc2nc(Nc2cncc(F)c2)n1-c1ccccc1F [Example 111, 6-fluoro-3-(2-fluorophenyl)-2-((5-fluoropyridin-3-yl)amino)quinazolin-4(3H)-one]
inhibition at 0.1 µM: 35%

SMILES: O=c1c2ccccc2nc(Nc2cccn3ccnc23)n1-c1ccccc1 [Example 66]
inhibition at 10 µM: 62%

SMILES: O=c1c2cc(F)ccc2nc(Nc2cccnc2)n1CCC(F)(F)F [Example 171]
inhibition at 100 µM: 100%

IC50: > 10 µM
SMILES: C[C@H]1CC[C@H](n2c(Nc3cccnc3)nc3ccc(F)cc3c2=O)CC1 [Example 201]

SMILES: Cc1ccc2nc(Nc3cccnc3)n(-c3ccccc3)c(=O)c2c1 [Example 42, 6-methyl-3-phenyl-2-(pyridin-3-ylamino)quinazolin-4(3H)-one]
inhibition at 1 µM: 98%

IC50: > 10 µM
SMILES: O=c1c2ccncc2nc(Nc2cccnc2)n1-c1ccccc1 [Example 192]

SMILES: Cn1cnc2c(Nc3nc4ccccc4c(=O)n3-c3ccccc3)cccc21 [Example 93]
inhibition at 10 µM: 53%

SMILES: Cc1ccncc1Nc1nc2ccc(F)cc2c(=O)n1-c1ccccc1 [Example 47]
inhibition at 10 µM: 89%

SMILES: O=c1c2cc(Cl)ccc2nc(Nc2cccnc2)n1-c1ccccc1F [Example 51, 6-chloro-3-(2-fluorophenyl)-2-(pyridin-3-ylamino)quinazolin-4(3H)-one]
inhibition at 1 µM: 100%

SMILES: O=c1c2cc(F)ccc2nc(Nc2cccnc2)n1Cc1ccccc1 [Example 151]
inhibition at 10 µM: 2%

IC50: > 100 µM
SMILES: CN(C)C(=O)c1ccc2nc(Nc3cccnc3)n(-c3ccccc3)c(=O)c2c1 [Example 213]

SMILES: Cc1cc(Nc2nc3ccc(F)cc3c(=O)n2-c2ccccc2)ccn1 [Example 139]
inhibition at 10 µM: 100%

SMILES: CN1CCC(n2c(Nc3cccnc3)nc3ccc(F)cc3c2=O)CC1 [Example 101]
inhibition at 10 µM: 6%

SMILES: Cc1ccc(-n2c(Nc3cccnc3)nc3ccc(F)cc3c2=O)cc1 [Example 105, 6-fluoro-2-(pyridin-3-ylamino)-3-(p-tolyl)quinazolin-4(3H)-one]
inhibition at 1 µM: 100%

SMILES: COc1ccc(Nc2nc3ccc(F)cc3c(=O)n2-c2ccccc2)nc1 [Example 149]
inhibition at 10 µM: 32%

IC50: > 10 µM
SMILES: CC1(n2c(Nc3cccnc3)nc3ccc(F)cc3c2=O)CC1 [Example 196]

IC50: > 100 µM
SMILES: CS(=O)(=O)Nc1ccc2nc(Nc3cccnc3)n(-c3ccccc3)c(=O)c2c1 [Example 211]

SMILES: Cc1ccc2c(=O)n(-c3ccccc3)c(Nc3cccnc3)nc2c1 [Example 86]
inhibition at 100 µM: 31%

SMILES: O=c1c2cc(F)ccc2nc(Nc2cnoc2)n1-c1ccccc1 [Example 172]
inhibition at 100 µM: 100%

SMILES: Cn1cc(Nc2nc3ccc(Cl)cc3c(=O)n2-c2ccccc2)cn1 [Example 186]
inhibition at 10 µM: 100%

SMILES: O=c1c2ccccc2nc(Nc2cccnc2)n1C1CCCC1 [Example 56]
inhibition at 10 µM: 100%

SMILES: O=c1c2cc(Cl)ccc2nc(Nc2ccncc2)n1-c1ccccc1 [Example 33]
inhibition at 10 µM: 100%

SMILES: Cc1cccnc1Nc1nc2ccc(Cl)cc2c(=O)n1-c1ccccc1 [Example 26]
inhibition at 1 µM: 23%

IC50: 2.7 µM
SMILES: Cc1ccncc1Nc1nc2ccc(Cl)cc2c(=O)n1-c1ccccc1 [Example 147]

SMILES: O=c1c2cc(F)ccc2nc(Nc2cccnc2)n1[C@H]1CC[C@H](O)CC1 [Example 180]
inhibition at 1 µM: 35%

IC50: > 10 µM
SMILES: CO[C@H]1CC[C@H](n2c(Nc3cccnc3)nc3ccc(F)cc3c2=O)CC1 [Example 200]

SMILES: CCc1ccc(Nc2nc3ccc(Cl)cc3c(=O)n2-c2ccccc2)cn1 [Example 49]
inhibition at 10 µM: 34%

IC50: > 10 µM
SMILES: Cc1cnc2nc(Nc3cccnc3)n(-c3ccccc3)c(=O)c2c1 [Example 202]

SMILES: Cn1nccc1-n1c(Nc2cccnc2)nc2ccc(F)cc2c1=O [Example 150]
inhibition at 1 µM: 26%

IC50: > 10 µM
SMILES: NC(=O)c1ccc(Nc2nc3ccc(Cl)cc3c(=O)n2-c2ccccc2)nc1 [Example 221]

SMILES: Cn1ccc(Nc2nc3ccc(F)cc3c(=O)n2-c2ccccc2)c1 [Example 182]
inhibition at 10 µM: 72%

SMILES: CC(C)n1c(Nc2cccnc2)nc2ccccc2c1=O [Example 55]
inhibition at 10 µM: 88%

IC50: > 100 µM
SMILES: Cc1ccccc1-n1c(Nc2cccnc2)nc2ccc(S(C)(=O)=O)cc2c1=O [Example 214]

SMILES: CN1CC(c2ccccc2)(n2c(Nc3cccnc3)nc3ccc(F)cc3c2=O)C1 [Example 176]
inhibition at 10 µM: 88%

IC50: > 10 µM
SMILES: Cc1ccc2nc(Nc3cccnc3)n(-c3ccccc3)c(=O)c2n1 [Example 198]

SMILES: Cc1ccccc1-n1c(Nc2cccnc2)nc2cccc(F)c2c1=O [Example 120]
inhibition at 1 µM: 69%

SMILES: Cn1cnc2ccc(Nc3nc4ccccc4c(=O)n3-c3ccccc3)cc21 [Example 2, 2-((1-methyl-1H-benzo[d]imidazol-6-yl)amino)-3-phenylquinazolin-4(3H)-one]
inhibition at 10 µM: 57%

SMILES: CN1CCC(n2c(Nc3cccnc3)nc3ccccc3c2=O)CC1 [Example 78]
inhibition at 10 µM: 100%

IC50: > 10 µM
SMILES: Cc1cc2nc(Nc3cccnc3)n(-c3ccccc3)c(=O)c2cn1 [Example 193]

SMILES: O=c1c2cc(Cl)ccc2nc(Nc2cnccn2)n1-c1ccccc1 [Example 38, 6-chloro-3-phenyl-2-(pyrazin-2-ylamino)quinazolin-4(3H)-one]
inhibition at 1 µM: 88%

SMILES: O=c1c2ccccc2nc(Nc2cccnc2)n1C1CCCCC1 [Example 57]
inhibition at 1 µM: 21%

IC50: > 100 µM
SMILES: Cc1cccc2c(=O)n(-c3ccccc3)c(Nc3cccnc3)nc12 [Example 224]

IC50: > 10 µM
SMILES: O=c1c2cnccc2nc(Nc2cccnc2)n1-c1ccccc1 [Example 189]

SMILES: O=c1c2cc(F)ccc2nc(Nc2cccnc2)n1C1(c2ccccc2)CNC1 [Example 175]
inhibition at 10 µM: 25%

SMILES: O=c1c2cc(F)ccc2nc(Nc2cccnc2)n1-c1ccsc1 [Example 161]
inhibition at 1 µM: 35%

IC50: > 100 µM
SMILES: Cc1cccc2nc(Nc3cccnc3)n(-c3ccccc3)c(=O)c12 [Example 223]

SMILES: O=c1c2cc(F)ccc2nc(Nc2cccnc2)n1-c1cncc(F)c1 [Example 184]
inhibition at 100 µM: 54%

SMILES: N#Cc1ccc2nc(Nc3cncc(F)c3)n(-c3ccccc3)c(=O)c2c1 [Example 112, 2-((5-fluoropyridin-3-yl)amino)-4-oxo-3-phenyl-3,4-dihydroquinazoline-6-carbonitrile]
inhibition at 0.1 µM: 32%

Source: patent US12404268B2, “2-heteroaryl aminoquinazolinone derivative” (Sumitomo Pharma Co., Ltd., priority 2020, dated 2025)
